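Cells were grown in 96-well plates and exposed to each compound for 48 hours at five concentrations; endpoints were interpolated linearly between bracketing concentrations, or set to the highest concentration if not reached. GI50 is the concentration that inhibits growth by half. TGI: concentration producing complete growth inhibition.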

Among the test systems are OVCAR-8 ovarian; KM12 colon; SK-MEL-5 melanoma; NCI/ADR-RES ovarian; SF-539 CNS; ACHN renal; RPMI-8226 leukemia; CAKI-1 renal.
Holding throughout (test): growth of human tumour cells (NCI), 48 h

For the compound `Oc1c(Cl)c(Cl)c(O)c2c1CCCC2`, the TGI in the assay with OVCAR-8 ovarian was determined as 46 µM; in the assay on KM12 colon, 30.2 µM; with SK-MEL-5 melanoma, 25.7 µM; in the assay on NCI/ADR-RES ovarian it was 38 µM; in the assay on SF-539 CNS, 23.5 µM; in the assay with ACHN renal, 3.27 µM. Moreover, the TGI in the assay with RPMI-8226 leukemia turned out to be 6.91 µM.
Take `Nc1ccccc1C#C/C=C\C#Cc1cccc(O)c1`: the GI50 with CAKI-1 renal is 8.08 µM; in the assay with OVCAR-8 ovarian, 0.663 µM; in the assay on KM12 colon it was 2.61 µM; with SK-MEL-5 melanoma it was 2.47 µM; in the assay with NCI/ADR-RES ovarian it was 2.39 µM; in the assay with SF-539 CNS, 2.5 µM. For the same compound, the results for the GI50 with ACHN renal and in the assay on RPMI-8226 leukemia were 2.64 µM and 2.51 µM, respectively. In addition, the TGI in the assay with CAKI-1 renal worked out at 36.2 µM; in the assay with OVCAR-8 ovarian it was 13.9 µM; in the assay on KM12 colon it was 11.7 µM; in the assay on SK-MEL-5 melanoma, 14.5 µM; in the assay on NCI/ADR-RES ovarian it was 10.3 µM; with SF-539 CNS it was 11.5 µM. In addition, the results for the TGI with ACHN renal and in the assay on RPMI-8226 leukemia were 18.8 µM and greater than 38.2 µM, respectively.
Take `Cc1ccc(C(=O)NC2CCC2)cc1-c1ccc(C(=O)NCC2CC2)cc1`: the GI50 with CAKI-1 renal is greater than 25 µM; in the assay on OVCAR-8 ovarian it was greater than 25 µM; in the assay with KM12 colon, greater than 25 µM; in the assay with SK-MEL-5 melanoma, greater than 21.5 µM; with NCI/ADR-RES ovarian it was greater than 25 µM; with SF-539 CNS it was greater than 25 µM. Further, the GI50 in the assay with ACHN renal and with RPMI-8226 leukemia was greater than 25 µM in each case. Moreover, the TGI in the assay with CAKI-1 renal, in the assay with OVCAR-8 ovarian, in the assay with KM12 colon, in the assay with SK-MEL-5 melanoma, in the assay with NCI/ADR-RES ovarian and with SF-539 CNS was greater than 25 µM in each case. Also, the TGI in the assay with ACHN renal and with RPMI-8226 leukemia was greater than 25 µM each time.
Take `COC(=O)c1cc2ccccc2c2c3c(ccc12)OCO3`: the GI50 was 278 µM with CAKI-1 renal; 41.1 µM with OVCAR-8 ovarian; 515 µM with KM12 colon; 45.2 µM in the assay on SK-MEL-5 melanoma; 54.4 µM with NCI/ADR-RES ovarian; 44.4 µM in the assay with SF-539 CNS. Also, the GI50 was 75.3 µM in the assay with ACHN renal and 430 µM in the assay with RPMI-8226 leukemia. Besides, the TGI in the assay with CAKI-1 renal was greater than 1000 µM; in the assay with OVCAR-8 ovarian, greater than 1000 µM; in the assay on KM12 colon, greater than 1000 µM; in the assay with SK-MEL-5 melanoma, greater than 1000 µM; in the assay on NCI/ADR-RES ovarian, greater than 1000 µM; with SF-539 CNS, 394 µM. For the same compound, the TGI in the assay with ACHN renal and in the assay with RPMI-8226 leukemia was greater than 1000 µM throughout.
As for `O=[N+]([O-])c1ccc(N=Nc2ccc(O)c3ccccc23)cc1`, the GI50 in the assay on CAKI-1 renal was 4.17 µM; in the assay on OVCAR-8 ovarian, 3.1 µM; with KM12 colon, 3.21 µM; with SK-MEL-5 melanoma, 2.55 µM; with NCI/ADR-RES ovarian, 2.41 µM; in the assay on SF-539 CNS, 10.3 µM. Further, the figures for the GI50 in the assay with ACHN renal and in the assay on RPMI-8226 leukemia were 3.13 µM and 1.59 µM, respectively. Also, the TGI in the assay with CAKI-1 renal is greater than 100 µM; in the assay on OVCAR-8 ovarian it was greater than 100 µM; in the assay with KM12 colon, greater than 100 µM; in the assay with SK-MEL-5 melanoma it was 13.6 µM; with NCI/ADR-RES ovarian, 55.8 µM; with SF-539 CNS, greater than 100 µM. Further, the TGI is greater than 100 µM with ACHN renal and 6.55 µM in the assay on RPMI-8226 leukemia.
For `COc1ccc(NC(=S)c2ccoc2C)cc1CC(=O)OC(C)C`, the TGI in the assay on CAKI-1 renal is greater than 100 µM; in the assay with OVCAR-8 ovarian, greater than 100 µM; with KM12 colon, greater than 100 µM; in the assay with SK-MEL-5 melanoma it was greater than 100 µM; with NCI/ADR-RES ovarian, 58.7 µM; with SF-539 CNS, greater than 100 µM. For the same compound, the TGI with ACHN renal and with RPMI-8226 leukemia was greater than 100 µM in each case.
For `CN(C)c1ccc(C(=NO)c2ccc(N(C)C)cc2)cc1`, the GI50 in the assay on CAKI-1 renal was 1.95 µM; with OVCAR-8 ovarian it was 3.9 µM; with KM12 colon it was 1.28 µM; in the assay with SK-MEL-5 melanoma, 1.57 µM; with SF-539 CNS, 3.38 µM; in the assay on ACHN renal it was 8.43 µM. In addition, in the assay on RPMI-8226 leukemia, the GI50 was 2.04 µM. The TGI in the assay on CAKI-1 renal was 7.86 µM; in the assay on OVCAR-8 ovarian, greater than 100 µM; with KM12 colon, greater than 100 µM; in the assay with SK-MEL-5 melanoma, 4.74 µM; in the assay on SF-539 CNS it was greater than 100 µM; with ACHN renal it was greater than 100 µM. In the assay on RPMI-8226 leukemia, this compound showed a TGI of 7.94 µM.
Turning to `CC(C)(C)c1[nH]nc2c1C(c1cc3ccccc3[nH]c1=O)Nc1cc(C(=O)OCc3ccccc3)ccc1N2` (centres undefined), the GI50 in the assay on CAKI-1 renal was 8.75 µM; with OVCAR-8 ovarian, 5.5 µM; in the assay on KM12 colon, 2.83 µM; in the assay with NCI/ADR-RES ovarian, greater than 100 µM; in the assay with SF-539 CNS it was 4.56 µM; in the assay on ACHN renal it was 4.25 µM. In addition, in the assay with RPMI-8226 leukemia, the GI50 was 2.71 µM. In addition, the TGI in the assay on CAKI-1 renal was greater than 100 µM; with OVCAR-8 ovarian, greater than 100 µM; in the assay on KM12 colon, 7.34 µM; in the assay on NCI/ADR-RES ovarian, greater than 100 µM; with SF-539 CNS, greater than 100 µM; in the assay on ACHN renal, greater than 100 µM. In the assay on RPMI-8226 leukemia, this compound returned a TGI greater than 100 µM.
For the compound `Nc1ncnc2c1c(-c1ccc(Oc3ccccc3)cc1)nn2C[C@@H]1SSC[C@H]1O`, the GI50 is 2.18 µM in the assay with CAKI-1 renal; 3.35 µM in the assay on OVCAR-8 ovarian; 0.208 µM in the assay with KM12 colon; 0.874 µM in the assay on SK-MEL-5 melanoma; 2.96 µM in the assay on NCI/ADR-RES ovarian; 1.02 µM in the assay with SF-539 CNS. In addition, the GI50 is 2.02 µM with ACHN renal and 5.58 µM in the assay with RPMI-8226 leukemia. Also, the TGI in the assay on CAKI-1 renal came to 10.5 µM; with OVCAR-8 ovarian, 14.3 µM; with KM12 colon, 16.7 µM; with SK-MEL-5 melanoma it was 2.3 µM; in the assay on NCI/ADR-RES ovarian, 14 µM; with SF-539 CNS it was 8.02 µM. The TGI with ACHN renal came to 10.5 µM; in the assay on RPMI-8226 leukemia, 31.8 µM.
For the compound `COc1ccc(/C=C(\C(=O)NCc2cccnc2)S(=O)(=O)c2ccccc2)cc1OC`, the GI50 in the assay on CAKI-1 renal was 3.29 µM; in the assay on OVCAR-8 ovarian, 3.84 µM; with KM12 colon, 2.81 µM; in the assay on SK-MEL-5 melanoma it was 2.97 µM; in the assay with NCI/ADR-RES ovarian it was 18.2 µM; in the assay with SF-539 CNS it was 2.49 µM. Also, the results for the GI50 in the assay with ACHN renal and with RPMI-8226 leukemia were 3.16 µM and 2.43 µM, respectively. Moreover, the TGI is 11.7 µM with CAKI-1 renal; 25.1 µM with OVCAR-8 ovarian; 8.61 µM with KM12 colon; 10.9 µM in the assay with SK-MEL-5 melanoma; greater than 100 µM in the assay on NCI/ADR-RES ovarian; 6.74 µM with SF-539 CNS. The values for the TGI in the assay on ACHN renal and with RPMI-8226 leukemia were 11.5 µM and 6.78 µM, respectively.

For the origin of these results see PubChem BioAssay (NCI).
